# Test results published in patent US5013743A, “Selective antibacterial agent against campytobacter” (Takeda Chemical Industries, Ltd., priority 1989, dated 1991).
# Key:
# C. pylori PCL 56 = assay: MIC, agar-plate dilution method, test strain C; type: cell-based; settings: Helicobacter pylori, PCL56, 72 h, Brucella agar, 37° C., 3 days
# Description: The minimum inhibitory concentration (MIC) of each compound was determined by the agar-plate dilution method based on the standard method advocated by Japan Society of Chemotherapy [cf: Chemotherapy, Jan. '81, p. 76]. The volume of agar medium per plate was 20 ml. Each of the test compounds was dissolved in dimethylsulfoxide at a concentration of 80 mg/ml or 40 mg/ml, and diluted 10 times with sterile distilled water. Furthermore, the aqueous solution of 8 mg/ml or 4 mg/ml was diluted serially 2-fold with sterile distilled water. To 2 ml of the diluted solution was added 18 ml of Brucella agar (BBL Microbiology Systems, Becton Dickinson and Co., Cockeysville, Md. 21030) containing 7% defibrinated horse blood (manufactured by Nippon Bio-supp. Center) and mixed well. Test strains frozen at -80° C. in Brucella broth (BBL) containing 10% horse serum were thawed and inoculated on a Brucella agar slant medium containing 7% defibrinated horse blood. The medium was incubated anaerobically at 37° C. for 3 days in a jar containing a piece of sponge sufficiently impregnated with water and Campy Pak™ (BBL). The organisms grown on the slant medium were collected and suspended in a Brucella broth to correspond to the turbidity of about 10^8 CFU/ml of common bacteria. One platinum loop of inoculum was streaked on the medium plates for determination. The plates were incubated under the same conditions as described above. […] The results are shown in Table 2 and Table 3. | C: C. pylori PCL 56
# genus Campylobacter = assay: Antibacterial activity against the genus Campylobacter (Tables 2 and 3, summary in words); type: cell-based, Campylobacter pylori; settings: fluorinated alkyl derivatives vs other derivatives, Table 2 and Table 3
# Description: (§1) The minimum inhibitory concentration (MIC) of each compound was determined by the agar-plate dilution method based on the standard method advocated by Japan Society of Chemotherapy [cf: Chemotherapy, Jan. '81, p. 76]. The volume of agar medium per plate was 20 ml. Each of the test compounds was dissolved in dimethylsulfoxide at a concentration of 80 mg/ml or 40 mg/ml, and diluted 10 times with sterile distilled water. Furthermore, the aqueous solution of 8 mg/ml or 4 mg/ml was diluted serially 2-fold with sterile distilled water. To 2 ml of the diluted solution was added 18 ml of Brucella agar (BBL Microbiology Systems, Becton Dickinson and Co., Cockeysville, Md. 21030) containing 7% defibrinated horse blood (manufactured by Nippon Bio-supp. Center) and mixed well. Test strains frozen at -80° C. in Brucella broth (BBL) containing 10% horse serum were thawed and inoculated on a Brucella agar slant medium containing 7% defibrinated horse blood. The medium was incubated anaerobically at 37° C. for 3 days in a jar containing a piece of sponge sufficiently impregnated with water and Campy Pak™ (BBL). The organisms grown on the slant medium were collected and suspended in a Brucella broth to correspond to the turbidity of about 10^8 CFU/ml of common bacteria. One platinum loop of inoculum was streaked on the medium plates for determination. The plates were incubated under the same conditions as described above.
# [1] = Stability of the lyophilized compound (1) after being dissolved in vials, storage for 24 hours; type: physicochemical
# Description: (§2) The resulting filtrate was filled in 1 ml portions into vials of a 12 cm^3 capacity, followed by lyophilization by means of the conventional technique.
# (§3) *As measured by use of highperformance liquid chromatography (HPLC),
# (§4) whereby the content determined immediately after preparation was taken as
# (§5) Chromatographic conditions of HPLC:
# (§6) Nucleosil 5 C18 (supplied by GasChro Kogyo K.K. of Japan) 4.0 mm
# (§7) Methanol:water:triethylamine (60:40:1, pH 7)
# (§8) UV spectrophotometry at 285 mm
# C. pylori NCTC 11637 = assay: MIC, agar-plate dilution method, test strain B; type: cell-based; settings: Helicobacter pylori, NCTC11637, 72 h, Brucella agar, 37° C., 3 days
# Description: as §1
# [2] = Inspection of lyophilized compound (1) for solubility, appearance and content immediately after dissolution; type: physicochemical; settings: for Appearance / Clarity / Content: after dissolution; for Content: taken as 100.0% (HPLC)
# Description: as §2, §3, §4, §5, §6, §7, §8
# C. pylori KS 13 = assay: MIC, agar-plate dilution method, test strain E; type: cell-based; settings: Helicobacter pylori, KS13, 72 h, Brucella agar, 37° C., 3 days
# Description: as §1
# C. pylori CLO 6 = assay: MIC, agar-plate dilution method, test strain G; type: cell-based; settings: Helicobacter pylori, CLO6, 72 h, Brucella agar, 37° C., 3 days
# Description: as §1
# [3] = type: in vivo; settings: oral, mice, 200 mg/kg
structure (smiles),measurement,setting,value
Cc1c(OCC(F)(F)F)ccnc1C[S+]([O-])c1nc2ccccc2[nH]1 (stereo not drawn) [Compound 1],MIC,C. pylori PCL 56,6.25 µg/mL
same,antibacterial activity compared with other derivatives,genus Campylobacter,stronger antibacterial activity
same,change in content of compound (1),"[1]; Solvents A to D, 24 hours",decrease slightly
same,change in the stage of solution,"[1]; Solvents A to D, 24 hours",no change in the stage of solution
same,Clarity,"[1]; after storage at 5° C. for 24 hrs., Solvent A",Clear
same,Clarity,"[1]; after storage at 5° C. for 24 hrs., Solvent B",Clear
same,Clarity,"[1]; after storage at 5° C. for 24 hrs., Solvent C",Clear
same,Clarity,"[1]; after storage at 5° C. for 24 hrs., Solvent D",Clear
same,Appearance,"[1]; after storage at 5° C. for 24 hrs., Solvents A to D",Slightly to lightly green-yellow
same,changes in appearance,[1]; immediately after dissolution and after storage for 24 hours,slight changes in appearance
same,MIC,C. pylori NCTC 11637,6.25 µg/mL
same,pH after dissolution,[2]; Solvent A,8.7
same,Solubility,"[2]; Solvent A (N-methylglucamine, HCl, propylene glycol, ethanol)",Good
same,pH after dissolution,[2]; Solvent B,9.0
same,Solubility,"[2]; Solvent B (N-methylglucamine, HCl, polyethylene glycol 400, ethanol, water)",Good
same,pH after dissolution,[2]; Solvent C,9.0
same,Solubility,"[2]; Solvent C (N-methylglucamine, HCl, ethanol, propylene glycol, water)",Good
same,pH after dissolution,[2]; Solvent D,9.0
same,Solubility,"[2]; Solvent D (N-methylglucamine, HCl, polyethylene glycol 400, water)",Good
same,dissolution speed,[2]; Solvents A to D,dissolved quickly
same,solubilities of the lyophilized powder in all of these solvents,[2]; Solvents A to D,excellent solubilities
same,Appearance,[2]; Solvent A,Colorless
same,Clarity,[2]; Solvent A,Clear
same,Content,[2]; Solvent A,100%
same,Appearance,[2]; Solvent B,Colorless
same,Clarity,[2]; Solvent B,Clear
same,Content,[2]; Solvent B,100%
same,Appearance,[2]; Solvent C,Colorless
same,Clarity,[2]; Solvent C,Clear
same,Content,[2]; Solvent C,100%
same,Appearance,[2]; Solvent D,Colorless
same,Clarity,[2]; Solvent D,Clear
same,Content,[2]; Solvent D,100%
same,MIC,C. pylori KS 13,6.25 µg/mL
same,MIC,C. pylori CLO 6,3.13 µg/mL
COc1ccc2[nH]c([S+]([O-])Cc3ncc(C)c(OC)c3C)nc2c1 (stereo not drawn) [Compound 2],MIC,C. pylori PCL 56,12.5 µg/mL
same,MIC,C. pylori NCTC 11637,25 µg/mL
same,MIC,C. pylori KS 13,25 µg/mL
same,MIC,C. pylori CLO 6,12.5 µg/mL
Cc1c(OCC(F)(F)F)ccnc1CSc1nc2ccccc2[nH]1 [Compound 6],MIC,C. pylori PCL 56,6.25 µg/mL
same,antibacterial activity compared with other derivatives,genus Campylobacter,stronger antibacterial activity
same,dead animals,[3],no dead animals
same,MIC,C. pylori NCTC 11637,12.5 µg/mL
same,MIC,C. pylori KS 13,12.5 µg/mL
same,MIC,C. pylori CLO 6,6.25 µg/mL
